{"source": "patent US8129383B2", "about": "“Aminopterin dosage forms and methods for inflammatory disorders” (Aminopterin LLC, priority 2005, dated 2012)", "key": {"[1]": {"tested_on": "neutrophils that accumulated in the carrageenan-treated air pouches", "conditions": "weekly ip injection days 1, 7, 14, 21; carrageenan day 22, exudate after 4 hours", "protocol": "J. Clin. Invest., 1993. 92(6):2675-82].\nA separate group of 5 animals was given vehicle by ip injection on the same days (0.9% saline, control, n=5). On day 16, air pouches were induced on the animals by injecting 3 ml of air subcutaneously on the back. On day 22 (i.e. one day after the last dose of drug or vehicle), inflammation was induced by injection of 1 ml of a suspension of carrageenan (2% weight/volume in calcium- and magnesium-free PBS). The mice were put back in their cages and allowed to run free for 4 hours. […] After 4 hours, the animals were sacrificed, the pouches flushed with 2 ml of PBS and the exudates harvested. Aliquots were diluted 1:1 with methylene blue (0.01% w/v in PBS), and the cells were counted."}, "canine atopic dermatitis": {"tested_on": "canine atopic dermatitis", "conditions": "oral about 0.2 mg/kg/week", "protocol": "[…] Subjects were assessed at baseline and at weeks 2 and 4 of the trial, and every other week of the 1-year extension phase.\nSubjects were assessed at baseline and at weeks 2 and 4."}, "[2]": {"tested_on": "influx of neutrophils (PMNs) in hyperoxia", "assay": "rat oxygen-toxicity model of bronchopulmonary dysplasia", "assay_type": "in vivo, rats", "conditions": "single 0.35 mg/kg ip day 2 after birth, 95% oxygen, sacrifice day 8", "description": "Mason, S, N.; Richard L. Auten, J. Lung inflammation in hyperoxia can be prevented by antichemokine treatment in newborn rats. American Journal of Respiratory Critical Care Medicine 2000, 162, 2316-2323]. […] Litter sizes were the same. […] Dams were rotated daily between air and oxygen cages to avoid maternal oxygen toxicity. On day 8, the pups were weighed and then euthanized, tracheas are cannulated and the pulmonary artery is perfused with saline. Bronchoalveolar lavage fluid (BALF) was then obtained for cell count and chemokine analysis (FIG. 3). The lungs were removed and snap frozen for myeloperoxidase activity assay (neutrophil accumulation within lung parenchyma) and 8-isoprostane, a marker of lipid oxidation. The pulmonary artery was perfused and the lungs were inflation-fixed with buffered formalin at 25 cm H2O."}, "[3]": {"tested_on": "carrageenan-induced inflammation in air pouches", "assay": "duration of efficacy in the murine air-pouch model after cessation of 4 weeks of dosing", "assay_type": "in vivo, mice", "conditions": "aminopterin 0.05 mg/kg, methotrexate 1.0 mg/kg", "protocol": "We therefore examined the rate at which anti-inflammatory activity was lost in the air-pouch model after the cessation of 4 weeks of dosing at the maximally efficacious dose (FIG. 2).\nOn day 25 the air pouches were re-inflated with 1.5 ml of air. Pouches were re-inflated as needed to maintain them."}, "ma104 cells": {"tested_on": "ma104 cells", "conditions": "read-out: EC50 of adenosine release (prior art); Cronstein'91; cited from earlier work"}}}
{"compound": "CN(Cc1cnc2nc(N)nc(N)c2n1)c1ccc(C(=O)N[C@@H](CCC(=O)O)C(=O)O)cc1", "note": "[methotrexate]", "values": [{"measurement": "EC50 for diminishing the number of neutrophils accumulated in carrageenan-treated air pouches", "setting": "[1]", "result": 0.04, "unit": "mg/kg/wk"}, {"measurement": "time to produce efficacy compared to aminopterin", "setting": "canine atopic dermatitis; 4-week trial", "result": "took longer to produce efficacy compared to aminopterin"}, {"measurement": "outcome of the five treated dogs", "setting": "canine atopic dermatitis; assessed at weeks 2 and 4", "result": "Three dogs did not do well, one had not improved as of the last assessment and one dog improved markedly"}, {"measurement": "influx of neutrophils in bronchoalveolar lavage fluid", "setting": "[2]", "result": "failed to reduce the influx of neutrophils"}, {"measurement": "difference between aminopterin and methotrexate in rate of recovery of inflammation", "setting": "[3]; 8, 12 or 22 days after last of 4 weekly ip doses", "result": "no statistically significant difference"}, {"measurement": "duration of action", "setting": "[3]; after last of 4 weekly ip doses", "result": "quite long"}, {"measurement": "EC50", "setting": "ma104 cells", "result": "~1", "unit": "nM"}]}
